Data on 28 compounds can be found in US20080287430A1, “Furan Compounds Useful As Ep1 Receptor Antagonists” (priority 2005, published 2008).

The target in this experiment is T1, human EP1 receptor (Homo sapiens, UniProt P34995).
T1 construct: expressed in transfected cells; host or cells: CHO-K1
T1 sequence (P34995 1-402): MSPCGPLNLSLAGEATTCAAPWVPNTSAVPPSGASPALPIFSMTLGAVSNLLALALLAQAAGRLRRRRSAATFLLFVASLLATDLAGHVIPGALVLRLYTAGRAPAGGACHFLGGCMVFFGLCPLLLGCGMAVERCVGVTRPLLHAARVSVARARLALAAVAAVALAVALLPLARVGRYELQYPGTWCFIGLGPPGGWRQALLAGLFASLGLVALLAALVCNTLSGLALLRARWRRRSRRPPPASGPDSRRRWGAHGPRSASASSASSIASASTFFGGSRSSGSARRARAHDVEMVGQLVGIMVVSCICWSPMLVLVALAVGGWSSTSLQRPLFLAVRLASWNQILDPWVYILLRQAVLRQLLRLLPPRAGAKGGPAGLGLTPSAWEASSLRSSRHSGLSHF
Briefly: human EP1 calcium mobilisation assay. It counts as cell-based. The note with it: human EP1, PGE2-induced calcium mobilisation in CHO-K1 cells; free bases or sodium salts; averages of a number of experiments; read-out: functional pKi value (converted). The protocol: Briefly, the antagonist properties of compounds are assessed by their ability to inhibit the mobilisation of intracellular calcium ([Ca^2+]i) in response to activation of EP1 or EP3 receptors by the natural agonist hormone prostaglandin E2 (PGE2). Increasing concentrations of antagonist reduce the amount of calcium that a given concentration of PGE2 can mobilise. The net effect is to displace the PGE2 concentration-effect curve to higher concentrations of PGE2. The amount of calcium produced is assessed using a calcium-sensitive fluorescent dye such as Fluo-4, AM and a suitable instrument such as a Fluorimetric Imaging Plate Reader (FLIPR). Increasing amounts of [Ca^2+]i produced by receptor activation increase the amount of fluorescence produced by the dye and give rise to an increasing signal. The signal may be detected using the FLIPR instrument and the data generated may be analysed with suitable curve-fitting software.
The human EP1 or EP3 calcium mobilisation assay (hereafter referred to as ‘the calcium assay’) utilises Chinese hamster ovary-K1(CHO-K1) cells into which a stable (pCIN; BioTechniques 20 (1996): 102-110) vector containing either EP1 or EP3 cDNA has previously been transfected. Cells are cultured in suitable flasks containing culture medium such as DMEM:F-12 supplemented with 10% v/v foetal calf serum, 2 mM L-glutamine, 0.25 mg/ml geneticin, 100 μM flurbiprofen and 10 μg/ml puromycin.
For assay, cells are harvested using a proprietary reagent that dislodges cells such as Versene. Cells are re-suspended in a suitable quantity of fresh culture media for introduction into a 384-well plate. Following incubation for 24 hours at 37° C. the culture media is replaced with a medium containing Fluo-4 and the detergent pluronic acid, and a further incubation takes place. Concentrations of compounds are then added to the plate in order to construct concentration-effect curves. This may be performed on the FLIPR in order to assess the agonist properties of the compounds. Concentrations of PGE2 are then added to the plate in order to assess the antagonist properties of the compounds.
The data so generated may be analysed by means of a computerised curve-fitting routine. The concentration of compound that elicits a half-maximal inhibition of the calcium mobilisation induced by PGE2 (pIC50) may then be estimated.

Structures can show the parent of a compound that is named as a salt.

`O=C(Nc1c(F)cccc1F)c1ccc(Cc2cc(Cl)ccc2OCc2ccc(Cl)cc2)o1` [Example 90, 5-[(5-Chloro-2-{[(4-chlorophenyl)methyl]oxy}-phenyl)methyl]-N-(2,6-difluorophenyl)-2-furancarboxamide]: the Ki is less than 1000 nM.
As to `CN1CCN(c2ccc3[nH]c(-c4ccc(Cc5cc(Cl)ccc5OCc5ccccc5)o4)nc3c2)CC1` [Example 103, 2-[5-({5-Chloro-2-[(phenylmethyl)oxy]phenyl}methyl)-2-furanyl]-5-(4-methyl-1-piperazinyl)-1H-benzimidazolehydrochloride], the Ki was less than 1000 nM.
Then `Clc1ccc(OCc2ccccc2)c(Cc2ccc(-c3nnc[nH]3)o2)c1` [Example 169, 3-[5-({5-Chloro-2-[(phenylmethyl)oxy]phenyl}methyl)-2-furanyl]-1H-1,2,4-triazole], with less than 1000 nM; and `CC(C)COc1ccc(Cl)cc1Cc1ccc(C(=O)NCc2c(F)cccc2F)o1` [Example 43, 5-({5-Chloro-2-[(2-methylpropyl)oxy]phenyl}methyl)-N-[(2,6-difluorophenyl)methyl]-2-furancarboxamide], with less than 1000 nM.
As for `O=C(Nc1c(F)cccc1F)c1ccc(Cc2cc(Cl)ccc2OCc2ccc(F)c(F)c2)o1` [Example 86, 5-[(5-Chloro-2-{[(3,4-difluorophenyl)methyl]oxy}-phenyl)methyl]-N-(2,6-difluorophenyl)-2-furancarboxamide], the figure is less than 1000 nM.
As for `O=C(Nc1c(F)cccc1F)c1ccc(Cc2cc(Cl)ccc2OCc2c(F)cc(F)cc2F)o1` [Example 83, 5-[(5-Chloro-2-{[(2,4,6-trifluorophenyl)methyl]oxy}-phenyl)methyl]-N-(2,6-difluorophenyl)-2-furancarboxamide], the figure is less than 1000 nM.
Regarding `O=C(Nc1c(F)cccc1F)c1ccc(Cc2cc(Cl)ccc2OCc2ccccc2)o1` [Example 79, 5-({5-Chloro-2-[(phenylmethyl)oxy]-phenyl}methyl)-N-(2,6-difluorophenyl)-2-furancarboxamide], the Ki is not above 10 nM.
As for `CC(C)COc1ccc(Cl)cc1Cc1ccc(C(=O)NCc2ccc(Cl)cc2)o1` [Example 41, 5-({5-Chloro-2-[(2-methylpropyl)oxy]phenyl}methyl)-N-[(4-chlorophenyl)methyl]-2-furancarboxamide], the Ki was less than 1000 nM.
As for `CN(C)Cc1ccc2nc(-c3ccc(Cc4cc(Cl)ccc4OCc4ccccc4)o3)[nH]c2c1` [Example 138, ({2-[5-({5-Chloro-2-[(phenylmethyl)oxy]phenyl}methyl)-2-furanyl]-1H-benzimidazol-5-yl}methyl)dimethylamine dihydrochloride], the figure is less than 1000 nM; as for `Cc1ccc2[nH]c(-c3ccc(Cc4cc(Cl)ccc4OCC(C)C)o3)nc2c1` [Example 125, 2-[5-({5-Chloro-2-[(2-methylpropyl)oxy]phenyl}-methyl)-2-furanyl]-5-methyl-1H-benzimidazole], less than 1000 nM; as for `O=C(O)c1ccc(Cc2cc(Cl)ccc2OCc2ccncc2Cl)o1` [Example 17, Sodium 5-[(5-chloro-2-{[(3-chloro-4-pyridinyl)methyl]oxy}phenyl)methyl]-2-furancarboxylate], not above 10 nM.
As for `CC(C)COc1ccc(Cl)cc1Cc1ccc(C(=O)NCc2cccc(F)c2F)o1` [Example 44, 5-({5-Chloro-2-[(2-methylpropyl)oxy]phenyl}methyl)-N-[(2,3-difluorophenyl)methyl]-2-furancarboxamide], the figure is less than 1000 nM; as for `Cc1ccccc1NC(=O)c1ccc(Cc2cc(Cl)ccc2OCc2ccccc2)o1` [Example 73, 5-({5-Chloro-2-[(phenylmethyl)oxy]-phenyl}methyl)-N-(2-methylphenyl)-2-furancarboxamide], less than 1000 nM; as for `CC(C)COc1ccc(Cl)cc1Cc1ccc(-c2nc3ccc(CN4CCOCC4)cc3[nH]2)o1` [Example 144, 2-[5-({5-Chloro-2-[(2-methylpropyl)oxy]-phenyl}methyl)-2-furanyl]-5-(4-morpholinylmethyl)-1H-benzimidazoledihydrochloride], less than 1000 nM.
As for `COc1ccc(CNC(=O)c2ccc(Cc3cc(Cl)ccc3OCC(C)C)o2)cc1` [Example 40, 5-({5-Chloro-2-[(2-methylpropyl)oxy]phenyl}methyl)-N-{[4-(methyloxy)phenyl]methyl}-2-furancarboxamide], the figure is less than 1000 nM; as for `CCC(CC)Oc1ccc(Cl)cc1Cc1ccc(C(=O)O)o1` [Example 4, Sodium 5-({5-chloro-2-[(1-ethylpropyl)oxy]phenyl}methyl)-2-furancarboxylate], less than 1000 nM.
Regarding `Fc1cc2nc(-c3ccc(Cc4cc(Cl)ccc4OCc4ccccc4)o3)[nH]c2cc1F` [Example 129, 2-[5-({5-Chloro-2-[(phenylmethyl)oxy]phenyl}methyl)-2-furanyl]-5,6-difluoro-1H-benzimidazole], the Ki is less than 1000 nM.
As for `O=C(Nc1c(F)cccc1F)c1ccc(Cc2cc(Cl)ccc2OCc2ccccn2)o1` [Example 91, 5-({5-Chloro-2-[(2-pyridinylmethyl)oxy]phenyl}methyl)-N-(2,6-difluorophenyl)-2-furancarboxamide], the figure is less than 1000 nM.
As for `CC(C)COc1ccc(Cl)cc1Cc1ccc(-c2nc3cc(CCN(C)C)ccc3[nH]2)o1` [Example 163, (2-{2-[5-({5-Chloro-2-[(2-methylpropyl)oxy]-phenyl}methyl)-2-furanyl]-1H-benzimidazol-5-yl}ethyl)dimethylaminedihydrochloride], the figure is less than 1000 nM.
As for `Fc1cccc2nc(-c3ccc(Cc4cc(Cl)ccc4OCc4ccccc4)o3)[nH]c12` [Example 131, 2-[5-({5-Chloro-2-[(phenylmethyl)oxy]-phenyl}methyl)-2-furanyl]-4-fluoro-1H-benzimidazole], the figure is less than 1000 nM; as for `Clc1ccc(OCc2ccccc2)c(Cc2ccc(-c3nc4ncccc4[nH]3)o2)c1` [Example 121, 2-[5-({5-Chloro-2-[(phenylmethyl)oxy]-phenyl}methyl)-2-furanyl]-1H-imidazo[4,5-b]pyridine], less than 1000 nM; as for `CC(C)COc1ccc(Cl)cc1Cc1ccc(-c2nc3ncccc3[nH]2)o1` [Example 116, 2-[5-({5-Chloro-2-[(2-methylpropyl)oxy]phenyl}-methyl)-2-furanyl]-1H-imidazo[4,5-b]pyridine], less than 1000 nM.
Turning to `O=C(O)c1ccc(Cc2cc(Cl)ccc2OCCc2ccccc2)o1` [Example 12, Sodium 5-({5-chloro-2-[(2-phenylethyl)oxy]phenyl}methyl)-2-furancarboxylate], the Ki is less than 1000 nM.
As for `O=C(NCc1ccccn1)c1ccc(Cc2cc(Cl)ccc2OCc2ccccc2)o1` [Example 53, 5-({5-Chloro-2-[(phenylmethyl)oxy]phenyl}methyl)-N-(2-pyridinylmethyl)-2-furancarboxamide], the Ki is not above 10 nM.
As for `O=C(c1ccc(Cc2cc(Cl)ccc2OCc2ccccc2)o1)n1cnc2ccccc21` [Example 77, 1-{[5-({5-Chloro-2-[(phenylmethyl)oxy]-phenyl}methyl)-2-furanyl]carbonyl}-1H-benzimidazole], the figure is less than 1000 nM.
Then `CC(C)COc1ccc(Cl)cc1Cc1ccc(-c2nc3cc4cn[nH]c4cc3[nH]2)o1` [Example 119, 6-[5-({5-Chloro-2-[(2-methylpropyl)oxy]phenyl}-methyl)-2-furanyl]-1,5-dihydroimidazo[4,5-f]indazole], with less than 1000 nM; and `CC(C)COc1ccc(Cl)cc1Cc1ccc(C(=O)NCc2ccc(C(F)(F)F)cc2)o1` [Example 38, 5-({5-Chloro-2-[(2-methylpropyl)oxy]phenyl}methyl)-N-{[4-(trifluoromethyl)phenyl]methyl}-2-furancarboxamide], with less than 1000 nM.
As for `Cc1cc(COc2ccc(Cl)cc2Cc2ccc(C(=O)O)o2)on1` [Example 9, Sodium 5-[(5-chloro-2-{[(3-methyl-5-isoxazolyl)methyl]oxy}phenyl)methyl]-2-furancarboxylate], the figure is less than 1000 nM.
